Where two headings read alike, the source gives them in different places.
Experiments:
Rhizoctonia solani = details: cited from earlier work
Pseudomonas syringae = type: cell-based; details: inferred from wild type vs thanamycin mutants; data not shown
Experimental: (§1) For in vitro growth inhibition of fungi and oomycetes, SH-C52 and its derivative strains were, using an overnight culture in KB, spot-inoculated (3 μl) at the periphery of 1/5th strength PDA (pH 7.0) plates. After incubation for 2 days at 25°C, an agar plug (4-mm-diameter) from a freshly grown plate with the target organism was transferred to the center of the 1/5th PDA plate. Inhibition of radial growth of the fungus or the oomycete was monitored from 2 days after incubation up to 2 weeks after incubation, depending on the growth speed of the target organism. For in vitro bacteria and yeast inhibition assays, bacteria and yeast cells were included, after autoclaving and cooling to 45°C, into the 1/5th PDA medium at a concentration of ~10^5 cfu/ml. After solidifying and sufficient drying of the plates, SH-C52 and its derivative strains were, using an overnight culture in KB, spot-inoculated (3 μl) at the periphery of the bacteria or yeast containing plates.

[1] = tested on: Pectobacterium atrosepticum; type: cell-based; details: inferred from wild type vs thanamycin mutants; data not shown
Experimental: as §1

phospholipase D = type: cell-based, Phytophthora infestans
Staphylococcus aureus = details: ref Reder-Christ et al., 2012; Schmidt et al., 2014; cited from earlier work
Excerpt: Recently, we discovered Pseudomonas sp. SH-C52, a strain representative of a larger population of Pseudomonads that contributes to the natural suppressiveness of a soil against the fungal plant pathogen Rhizoctonia solani (Mendes et al., [2011]). The gene cluster responsible for the activity of strain SH-C52 against R. solani is encoded by an NRPS, predicted to synthesize a 9-amino-acid chlorinated LP, designated thanamycin (Mendes et al., [2011]). The production and partial structure of thanamycin was resolved by live colony mass spectrometry (Watrous et al., [2012]). Next to thanamycin, stra ...

[2] = tested on: Arthrobacter crystallopoietes; details: cited from earlier work
Phytophthora infestans = type: cell-based
Phytophthora capsici = type: cell-based; details: 50 μM brabantamide A
Pythium ultimum = type: cell-based; details: 50 μM brabantamide A
fungi = type: cell-based
B. megaterium [3] = details: cited from earlier work
Rhodotorula pilimanae = details: cited from earlier work
B. megaterium [4] = details: cited from earlier work; remark: listed apart in the source

With thanamycin as the substance, how does the “antifungal activity against Rhizoctonia solani” value (Rhizoctonia solani) read?
Its value is “antifungal activity”.

And the “activity against Pseudomonas syringae” value (Pseudomonas syringae)?
The value was “little activity”.

What about the “activity against Pectobacterium atrosepticum” value [1] of the same substance?
Its value is “little activity”.

With brabantamide as the substance, how does the “variation in the phospholipid levels” value (phospholipase D) read?
Its value is “no significant variation”.

With brabantamide A as the substance, how does the “inhibition of phospholipase A2” value (phospholipase A2) read?
Its value is “no indication was found”.

And the “activity against Staphylococcus aureus” value (Staphylococcus aureus)?
Its value is “displays activity”.

What about the “activity against Arthrobacter crystallopoietes” value [2] of the same substance?
The value was “displays activity”.

And the “concentration above which mycelial growth is inhibited (less dense mycelial mat)” value (Phytophthora infestans)?
The value was “above 5 μM”.

What about the “activity against P. infestans” value (Phytophthora infestans; 1% DMSO, 18°C) of the same substance?
The value was “has activity”.

And the “activity against Phytophthora capsici” value (Phytophthora capsici)?
The value was “has activity”.

And the “activity against Pythium ultimum” value (Pythium ultimum)?
Its value is “has activity”.

And the “concentration at which the increase in PtdBut levels already occurred” value (phospholipase D)?
The value was ≤ 1 µM.

And the other phospholipid levels (phospholipase D)?
The other phospholipid levels was “not affected”.

And the “phosphatidylbutanol (PtdBut) levels (indicates stimulation of phospholipase D)” value (phospholipase D; n = 2)?
The value was “increase”.

What about the antifungal activity (fungi) of the same substance?
The antifungal activity was “No antifungal activity”.

Which “activity against B. megaterium” value (B. megaterium [3]) does the source give for corpeptin here?
The value was “activity was observed”.

Which “activity against the yeast Rhodotorula pilimanae” value (Rhodotorula pilimanae) does the source give for cormycin here?
Its value is “active”.

What about the “activity against B. megaterium” value (B. megaterium [4]) of the same substance?
Its value is “active”.

With syringopeptin as the substance, how does the “activity against B. megaterium” value (B. megaterium [3]) read?
The value was “activity was observed”.

— PMC4493835 (Frontiers in Microbiology, 2015)
